One assay concerns barnyardgrass. The assay is described as follows: Test A pre-/postemergence herbicide test. It counts as in vivo, Echinochloa crus-galli. The note with it: for Plant response rating, Barnyardgrass: Postemergence; for Barnyardgrass plant response rating: Preemergence. The procedure, abridged: (§1)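 Visual injury rating on a 0–100 scale (0 no effect, 100 complete control) versus untreated controls, about ten days after treatment in greenhouse. Pre: directed soil spray onto seeded sandy loam. Post: spray to runoff on plants 2–10 cm tall at one- to two-leaf stage.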

The next assay has as its system corn. The assay is described as follows: Test C pre-/postemergence herbicide test. It counts as in vivo, Zea mays. The gist of the method: (§2)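 Pre- and postemergence application, solvent/surfactant formulation; post at 1- to 4-leaf stage (2–18 cm). Greenhouse 12–14 d. Visual rating vs controls, 0 = no effect, 100 = complete control.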
Another assay concerns pigweed. The assay is described as follows: Test C pre-/postemergence herbicide test. It is filed as in vivo, Amaranthus retroflexus. The procedure, abridged: as §2
For another assay, the system named is redroot pigweed. Nature of the assay: Test A pre-/postemergence herbicide test. The settings on record: for Plant response rating, Pigweed: Postemergence; for Pigweed plant response rating: Preemergence. It counts as in vivo, Amaranthus retroflexus. The procedure, abridged: as §1
For another assay, the system named is velvetleaf. The assay is described as follows: Test C pre-/postemergence herbicide test. It is filed as in vivo, Abutilon theophrasti. The gist of the method:
as §2

In the next assay the test system is cocklebur. Nature of the assay: Test C pre-/postemergence herbicide test. It counts as in vivo, Xanthium strumarium. The procedure, abridged:
as §2

The next assay relates to johnsongrass. Nature of the assay: Test C pre-/postemergence herbicide test. It counts as in vivo, Sorghum halepense. The procedure, abridged:
as §2

The mark [1] stands for this setting: 500 g ai/ha, 0 to 100 scale, 0 no effect, 100 complete control.
[2] abbreviates: 2000 g ai/ha, 0 to 100 scale, 0 no effect, 100 complete control.
Setting [3] is: 500 g ai/ha, visual rating, 0 to 100 scale (0 no effect, 100 complete control).
[4] abbreviates: 125 g ai/ha, scale 0 (no effect) to 100 (complete control), visual, 12 to 14 days, preemergence.
Setting [5] is: 250 g ai/ha, scale 0 to 100 (0 no effect, 100 complete control), visual, 12 to 14 days, preemergence.
[6] abbreviates: Postemergence, 125 g ai/ha, scale 0 to 100, 0 no effect, 100 complete control.
[7] abbreviates: Postemergence, 250 g ai/ha, scale 0 to 100, 0 no effect, 100 complete control.
[8] abbreviates: postemergence, 62 g ai/ha, scale 0 to 100.
Where [9] appears, read: 62 g ai/ha, preemergence, scale 0 to 100.
The mark [10] stands for this setting: 250 g ai/ha, scale 0-100, preemergence.
The mark [11] stands for this setting: 500 g ai/ha, scale 0 to 100 (0 no effect, 100 complete control), visual, 12 to 14 days, preemergence.

Take `CCn1nc(C(C)(C)C)cc1C(=O)Nc1cccc(C(=O)NC2CC2)c1` [Compound 44]: the figures for the “Plant response rating, Barnyardgrass” value in the assay with barnyardgrass (setting [1]) and in the assay on barnyardgrass (setting [2]) were 90 and 100, respectively. Further, the “Barnyardgrass plant response rating” value in the assay on barnyardgrass (setting [3]) stood at 75; in the assay with barnyardgrass (setting [2]), 90. In the assay on corn (62 g ai/ha, preemergence), the “Plant response rating (0 = no effect, 100 = complete control), Corn” value amounted to 0. Also, the “Plant response rating, Corn” value in the assay on corn (setting [4]) was determined as 0; in the assay on corn (setting [5]), 0; in the assay on corn (setting [6]) it was 70; in the assay with corn (setting [7]), 80; with corn (setting [8]), 70. Further, in the assay on pigweed (62 g ai/ha, preemergence), the “Plant response rating (0 = no effect, 100 = complete control), Pigweed” value is 10. Also, the “Plant response rating, Pigweed” value with pigweed (setting [4]) stood at 70; with pigweed (setting [5]), 90; in the assay with pigweed (setting [7]), 100; with pigweed (setting [8]) it was 100; with redroot pigweed (setting [1]) it was 100; with redroot pigweed (setting [2]), 100. Also, the “Pigweed plant response rating” value in the assay with redroot pigweed (setting [3]) and in the assay on redroot pigweed (setting [2]) was 100 in each case. Besides, in the assay on velvetleaf (62 g ai/ha, preemergence), the “Plant response rating (0 = no effect, 100 = complete control), Velvetleaf” value was 70. The figures for the “Plant response rating, Velvetleaf” value with velvetleaf (setting [4]), in the assay on velvetleaf (setting [5]) and in the assay on velvetleaf (setting [8]) were 70, 70 and 60, respectively. In addition, the “Plant response rating (0 = no effect, 100 = complete control), Cocklebur” value in the assay on cocklebur (62 g ai/ha, preemergence) is given as 0. Further, the “Plant response rating, Cocklebur” value in the assay with cocklebur (setting [5]) is 0; with cocklebur (setting [6]), 70; with cocklebur (setting [7]), 70; in the assay with cocklebur (setting [8]), 50. For the same molecule, the “Plant response rating (0 = no effect, 100 = complete control), Johnsongrass” value with johnsongrass (62 g ai/ha, preemergence) is reported as 30. The “Plant response rating, Johnsongrass” value with johnsongrass (setting [4]) turned out to be 30; in the assay with johnsongrass (setting [5]), 50; with johnsongrass (setting [6]), 30; with johnsongrass (setting [7]) it was 40; with johnsongrass (setting [8]), 30.
As for `Cc1nn(C(C)(C)C)nc1C(=O)Nc1cccc(C(=S)N(C)C)c1` [Compound 419], the “Plant response rating, Corn” value turned out to be 0 with corn (setting [9]), 0 in the assay on corn (setting [10]) and 40 in the assay on corn (setting [11]). Besides, the “Plant response rating (0 = no effect, 100 = complete control), Corn” value in the assay with corn (125 g ai/ha, preemergence) is 0. For the same molecule, the “Plant response rating, Pigweed” value in the assay with pigweed (setting [9]) and in the assay on pigweed (setting [11]) was 100 throughout. In addition, in the assay on pigweed (125 g ai/ha, preemergence), the “Plant response rating (0 = no effect, 100 = complete control), Pigweed” value amounted to 100. Also, the “Plant response rating, Velvetleaf” value in the assay on velvetleaf (setting [9]) and in the assay with velvetleaf (setting [11]) was 100 throughout. The “Plant response rating (0 = no effect, 100 = complete control), Velvetleaf” value with velvetleaf (125 g ai/ha, preemergence) is 100. Moreover, the figures for the “Plant response rating, Cocklebur” value in the assay on cocklebur (setting [9]), in the assay on cocklebur (setting [10]) and with cocklebur (setting [11]) were 0, 45 and 70, respectively. Besides, the “Plant response rating (0 = no effect, 100 = complete control), Cocklebur” value in the assay on cocklebur (125 g ai/ha, preemergence) was 25. For the same molecule, the “Plant response rating, Johnsongrass” value in the assay on johnsongrass (setting [9]), in the assay with johnsongrass (setting [10]) and in the assay on johnsongrass (setting [11]) was 100 in each case. Also, the “Plant response rating (0 = no effect, 100 = complete control), Johnsongrass” value with johnsongrass (125 g ai/ha, preemergence) was found to be 100.
Turning to `CCc1nn(C(C)C)nc1C(=O)Nc1cccc(C(=S)N(C)C)c1` [Compound 409], the “Plant response rating, Corn” value came out at 0 with corn (setting [9]), 75 in the assay on corn (setting [10]) and 80 in the assay on corn (setting [11]). Besides, the “Plant response rating (0 = no effect, 100 = complete control), Corn” value with corn (125 g ai/ha, preemergence) turned out to be 5. Moreover, the “Plant response rating, Pigweed” value with pigweed (setting [9]) and with pigweed (setting [11]) was 100 in each case. Besides, the “Plant response rating, Velvetleaf” value with velvetleaf (setting [9]) came out at 5; in the assay on velvetleaf (setting [11]) it was 100. For the same molecule, the “Plant response rating (0 = no effect, 100 = complete control), Velvetleaf” value with velvetleaf (125 g ai/ha, preemergence) is recorded as 30. The “Plant response rating, Cocklebur” value with cocklebur (setting [9]) is on record as 0; in the assay on cocklebur (setting [10]), 70; in the assay on cocklebur (setting [11]), 80. In the assay with cocklebur (125 g ai/ha, preemergence), the “Plant response rating (0 = no effect, 100 = complete control), Cocklebur” value is recorded as 30. Further, the “Plant response rating, Johnsongrass” value in the assay on johnsongrass (setting [9]) is 35; in the assay with johnsongrass (setting [10]), 95; in the assay on johnsongrass (setting [11]), 95. The “Plant response rating (0 = no effect, 100 = complete control), Johnsongrass” value in the assay with johnsongrass (125 g ai/ha, preemergence) worked out at 80.
As for `CCc1nn(C(C)C)nc1C(=O)Nc1cccc(C(=O)N2CCCCC2)c1` [Compound 385], in the assay with corn (setting [9]), the “Plant response rating, Corn” value turned out to be 0. The “Plant response rating, Pigweed” value in the assay with pigweed (setting [9]) is reported as 80; in the assay with pigweed (setting [10]) it was 100; with pigweed (setting [11]), 100. The “Plant response rating (0 = no effect, 100 = complete control), Pigweed” value in the assay with pigweed (125 g ai/ha, preemergence) came out at 100. Also, the “Plant response rating, Velvetleaf” value in the assay on velvetleaf (setting [9]) stood at 50; in the assay on velvetleaf (setting [10]), 100; in the assay on velvetleaf (setting [11]), 100. In addition, the “Plant response rating (0 = no effect, 100 = complete control), Velvetleaf” value in the assay with velvetleaf (125 g ai/ha, preemergence) is listed as 85. For the same molecule, the “Plant response rating, Cocklebur” value in the assay on cocklebur (setting [9]) is listed as 0; in the assay on cocklebur (setting [10]), 100; in the assay with cocklebur (setting [11]), 100. Moreover, the “Plant response rating (0 = no effect, 100 = complete control), Cocklebur” value with cocklebur (125 g ai/ha, preemergence) was 0. For the same molecule, the “Plant response rating, Johnsongrass” value is 80 in the assay with johnsongrass (setting [9]), 100 in the assay with johnsongrass (setting [10]) and 100 in the assay on johnsongrass (setting [11]). The “Plant response rating (0 = no effect, 100 = complete control), Johnsongrass” value in the assay on johnsongrass (125 g ai/ha, preemergence) came out at 95.
In the case of `C=CCNC(=O)c1cccc(NC(=O)c2nn(C(C)C)nc2CC)c1` [Compound 382], the “Plant response rating, Corn” value is given as 0 in the assay on corn (setting [9]), 55 in the assay on corn (setting [10]) and 60 in the assay with corn (setting [11]). For the same molecule, in the assay with corn (125 g ai/ha, preemergence), the “Plant response rating (0 = no effect, 100 = complete control), Corn” value amounted to 50. Moreover, the entries for the “Plant response rating, Pigweed” value in the assay with pigweed (setting [9]), with pigweed (setting [10]) and in the assay on pigweed (setting [11]) were 95, 100 and 100, respectively. Moreover, the “Plant response rating (0 = no effect, 100 = complete control), Pigweed” value in the assay on pigweed (125 g ai/ha, preemergence) amounted to 95. Besides, the “Plant response rating, Velvetleaf” value in the assay on velvetleaf (setting [9]), in the assay on velvetleaf (setting [10]) and in the assay with velvetleaf (setting [11]) was 100 throughout. The “Plant response rating (0 = no effect, 100 = complete control), Velvetleaf” value in the assay on velvetleaf (125 g ai/ha, preemergence) is 100. The “Plant response rating, Cocklebur” value in the assay with cocklebur (setting [9]) amounted to 0; in the assay with cocklebur (setting [10]) it was 20; in the assay with cocklebur (setting [11]) it was 45. Also, the “Plant response rating (0 = no effect, 100 = complete control), Cocklebur” value with cocklebur (125 g ai/ha, preemergence) is given as 15. In addition, the “Plant response rating, Johnsongrass” value is on record as 70 with johnsongrass (setting [9]), 100 in the assay on johnsongrass (setting [10]) and 100 in the assay with johnsongrass (setting [11]). Further, the “Plant response rating (0 = no effect, 100 = complete control), Johnsongrass” value in the assay with johnsongrass (125 g ai/ha, preemergence) is given as 95.

Source of the values: patent US20060069132A1, “Azolecarboxamide herbicides” (priority 2004, published 2006).
